Patent US20160083776A1, “Methods for Measuring Polymerase Activity Useful for Sensitive, Quantitative Measurements of Any Polymerase Extension Activity and for Determining the Presence of Viable Cells” (Zeus Scientific, Inc., priority 2012, published 2016)

How the values were obtained:
Type in all cases: biochemical
[1] = tested on: S. aureus DNA polymerase extension activity; assay: Bead lysis-coupled DPE-PCR, ddCTP substitution, S. aureus lysate; details: 50 μM ddCTP substituted for dCTP, compared to standard reaction mix; crude bead mill lysate
Procedure: (§1) FIG. 5 illustrates that detection of bacteria by DPE-PCR is blocked by ddCTP. 5 μL of E. coli suspension were added to bead lysis-coupled DNA polymerase assays comprised of a dNTP mix containing either 50 μM dCTP or 50 μM ddCTP. DPE-PCR curves representing E. coli-derived DNA polymerase activity is presented. Plots were generated using the average qPCR Ct values from triplicate reactions at the indicated conditions. ddCTP termination and dCTP rescue experiments were performed for S. aureus exactly as described above for E. coli.
(§2) S. aureus and E. coli cultures were grown to an OD600 of 1.0±0.2 (approximately 1×10^9 cfu/mL.) For each organism, 1 mL of culture was pelleted and washed three times in T.E. Bacterial suspensions were serially diluted in T.E., and 5 μL of each stock were added to bead mill lysis tubes containing 50 μL DNA polymerase extension reaction mixture (see above for composition). A titration curve of 1×10^5 to […] cfu/reaction was performed in triplicate for each organism, including triplicate reactions without bacterial suspension.
(§3) After the addition of 5 μL bacterial stock, reaction tubes were bead milled for 6 min. at 2800 rpm using a digital Vortex Genie equipped with a disrupter head (Scientific Industries). Immediately after disruption, sample tubes were placed at 37° C. for 20 minutes. […]

[2] = molecular target: T1, DNA polymerase I (Escherichia coli, UniProt P00582); assay: DPE-PCR assay, ddCTP termination of purified DNA polymerase extension activity; details: 50 μM ddCTP substituted for dCTP in the extension reaction mix; 37° C., 20 minutes
T1 construct: purchased New England Biolabs MO209
T1 sequence (P00582 whole entry): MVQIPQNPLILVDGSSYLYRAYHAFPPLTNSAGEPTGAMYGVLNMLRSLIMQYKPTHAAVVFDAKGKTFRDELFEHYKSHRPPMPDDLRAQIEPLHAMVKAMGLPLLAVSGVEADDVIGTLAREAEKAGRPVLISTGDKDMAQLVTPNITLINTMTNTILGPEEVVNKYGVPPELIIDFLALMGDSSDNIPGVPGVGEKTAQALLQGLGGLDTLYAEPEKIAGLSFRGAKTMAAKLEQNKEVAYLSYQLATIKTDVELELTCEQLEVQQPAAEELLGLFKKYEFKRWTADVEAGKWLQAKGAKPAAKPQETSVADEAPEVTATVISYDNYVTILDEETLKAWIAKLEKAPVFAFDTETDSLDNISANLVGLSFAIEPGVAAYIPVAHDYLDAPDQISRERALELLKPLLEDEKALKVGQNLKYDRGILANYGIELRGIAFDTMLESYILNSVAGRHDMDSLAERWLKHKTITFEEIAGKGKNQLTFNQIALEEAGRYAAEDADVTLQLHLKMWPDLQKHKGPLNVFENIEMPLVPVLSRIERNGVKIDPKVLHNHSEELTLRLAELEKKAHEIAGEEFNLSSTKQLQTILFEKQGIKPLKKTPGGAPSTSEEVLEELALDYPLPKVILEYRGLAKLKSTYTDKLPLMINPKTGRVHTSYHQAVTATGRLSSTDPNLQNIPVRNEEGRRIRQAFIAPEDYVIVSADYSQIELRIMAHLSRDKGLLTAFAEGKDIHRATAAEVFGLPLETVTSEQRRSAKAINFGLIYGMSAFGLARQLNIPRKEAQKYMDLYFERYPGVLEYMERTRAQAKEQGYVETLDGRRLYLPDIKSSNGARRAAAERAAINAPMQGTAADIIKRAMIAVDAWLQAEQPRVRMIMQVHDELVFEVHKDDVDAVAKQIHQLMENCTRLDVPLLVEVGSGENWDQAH
Procedure: DNA Pol I (NEB cat# MO209L), Klenow (NEB cat# MO210S) and Klenow exo(−) (NEB cat# MO212S) were diluted to the indicated U/μL stock in sterile T.E. pH 8.0. To begin, 2 μL of DNA polymerase stock at each concentration were placed into a 50 μL DNA polymerase extension reaction mixture containing the following components: 50 μM dNTP, 20 mM Tris pH 8.0, 10 mM Ammonium sulfate, 10 mM Potassium chloride, 2 mM Magnesium sulfate, 1% BSA, 0.1% Triton X-100, 0.1% Tween 20, and 0.001 μM pre-annealed DNA substrate (described above. Two micro-liters of T.E. (without DNA polymerase) was routinely added to an additional tube containing complete DNA polymerase extension reaction mixture and is referred to as a “No Input Control” (NIC). Reactions containing DNA polymerase (or No Input Controls) were vortexed briefly and placed at 37° C. for 20 minutes. After 20 minutes, 3 μL of each reactions containing purified DNA polymerase were immediately placed into a qPCR reaction (see below for qPCR conditions).
DNA polymerase extension reactions were prepared as described above with a 50 μM [dATP, dGTP, dTTP] mixture supplemented with either 50 μM dCTP or 50 μM ddCTP (Affymetrix #77332.) 50 μL DNA polymerase extension reactions with a 50 μM [dATP, dGTP, dTTP] mixture, supplemented with either dCTP or ddCTP, were spiked with 2 μL of a 1×10^−9 U/μL stock of DNA polymerase I (New England Biolabs # MO209). […]

[3] = tested on: E. coli-derived DNA polymerase activity; assay: Bead lysis-coupled DPE-PCR, ddCTP substitution, E. coli lysate; details: 50 μM ddCTP substituted for dCTP, compared to standard reaction mix; crude bead mill lysate
Procedure: as §1, §2, §3

Nc1ccn([C@H]2CC[C@@H](COP(=O)(O)OP(=O)(O)OP(=O)(O)O)O2)c(=O)n1 [ddCTP, 2′,3′-Dideoxycytidine-5′-Triphosphate]
DPE-PCR signal derived from S. aureus cfu spikes [1]: blocked the generation of signal | DPE-PCR assay signal generated by DNA polymerase I [2]: eliminates signal | DPE-PCR signal derived from E. coli cfu spikes [3]: blocked the generation of signal
